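Results reflect a 48-hour exposure of cells in 96-well plates to compound at five concentrations. TGI: concentration producing complete growth inhibition.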
Experiments:
Assay in all cases: NCI-60 cell line screen, 48 h
[1] = test system: NCI/ADR-RES ovarian
[2] = test system: MALME-3M melanoma
[3] = test system: CAKI-1 renal
[4] = test system: MCF7 breast
[5] = test system: RXF 393 renal
[6] = test system: UACC-62 melanoma
[7] = test system: SK-MEL-28 melanoma
[8] = test system: SK-MEL-2 melanoma
[9] = test system: OVCAR-3 ovarian
[10] = test system: 786-0 renal
[11] = test system: LOX IMVI melanoma
[12] = test system: DU-145 prostate
[13] = test system: OVCAR-4 ovarian
[14] = test system: MDA-MB-231 breast
[15] = test system: OVCAR-5 ovarian
[16] = test system: MOLT-4 leukemia
[17] = test system: SN12C renal
[18] = test system: PC-3 prostate
[19] = test system: SK-OV-3 ovarian
[20] = test system: HOP-92 NSCLC
[21] = test system: NCI-H23 lung
[22] = test system: SF-295 CNS
[23] = test system: MDA-MB-435
[24] = test system: EKVX NSCLC
[25] = test system: SK-MEL-5 melanoma
[26] = test system: MDA-N
[27] = test system: NCI-H226 lung
[28] = test system: HCT-116 colon
[29] = test system: OVCAR-8 ovarian
[30] = test system: SNB-19 CNS
[31] = test system: UACC-257 melanoma
[32] = test system: TK-10 renal
[33] = test system: HS 578T breast
[34] = test system: SF-268 CNS
[35] = test system: NCI-H522 lung
[36] = test system: SW-620 colon
[37] = test system: ACHN renal
[38] = test system: HCT-15 colon
[39] = test system: M14 melanoma
[40] = test system: A498 renal
[41] = test system: A549 NSCLC
[42] = test system: KM12 colon
[43] = test system: T-47D breast
[44] = test system: HT29 colon
[45] = test system: HOP-62 NSCLC
[46] = test system: U251 CNS
[47] = test system: HL-60(TB) leukemia
[48] = test system: K-562 leukemia
[49] = test system: RPMI-8226 leukemia
[50] = test system: BT-549 breast
[51] = test system: COLO 205 colon
[52] = test system: UO-31 renal
[53] = test system: IGROV1 ovarian
[54] = test system: SR leukemia
[55] = test system: SF-539 CNS
[56] = test system: SNB-75 CNS
[57] = test system: CCRF-CEM leukemia
[58] = test system: NCI-H460 lung
[59] = test system: HCC-2998 colon

CC(C)CC1c2[nH]c3ccccc3c2C[C@H]2C(=O)NC(CCC(=O)OC(C)(C)C)C(=O)N12 (stereo partly specified)
TGI [1]: > 100 µM
TGI [2]: 62.2 µM
TGI [3]: > 100 µM
TGI [4]: > 100 µM
TGI [5]: 72 µM
TGI [6]: > 100 µM
TGI [7]: > 100 µM
TGI [8]: 43.8 µM
TGI [9]: 41.7 µM
TGI [10]: > 100 µM
TGI [11]: 60.6 µM
TGI [12]: > 100 µM
TGI [13]: > 100 µM
TGI [14]: 79.1 µM
TGI [15]: > 100 µM
TGI [16]: 72.8 µM
TGI [17]: 70.8 µM
TGI [18]: 69 µM
TGI [19]: > 100 µM
TGI [20]: 78.1 µM
TGI [21]: > 100 µM
TGI [22]: 41.1 µM
TGI [23]: 97.4 µM
TGI [24]: > 100 µM
TGI [25]: 61.7 µM
TGI [26]: > 100 µM
TGI [27]: > 100 µM
TGI [28]: > 100 µM
TGI [29]: > 100 µM
TGI [30]: > 100 µM
TGI [31]: 66 µM
TGI [32]: 74 µM
TGI [33]: 54.2 µM
TGI [34]: > 100 µM
TGI [35]: 88.1 µM
TGI [36]: > 100 µM
TGI [37]: > 100 µM
TGI [38]: > 100 µM
TGI [39]: > 100 µM
TGI [40]: > 100 µM
TGI [41]: > 100 µM
TGI [42]: > 100 µM
TGI [43]: 49.7 µM
TGI [44]: 43.1 µM
TGI [45]: 56.2 µM
TGI [46]: > 100 µM
TGI [47]: 55.2 µM
TGI [48]: > 100 µM
TGI [49]: 67.2 µM
TGI [50]: > 100 µM
TGI [51]: 39.6 µM
TGI [52]: > 100 µM
TGI [53]: > 100 µM
TGI [54]: 65.1 µM

O=C1C(=O)c2ccccc2C(O)=C1C(CCc1ccccc1)C1=C(O)c2ccccc2C(=O)C1=O
TGI [1]: > 100 µM
TGI [2]: 29.7 µM
TGI [3]: > 100 µM
TGI [4]: > 100 µM
TGI [5]: > 100 µM
TGI [6]: 34.5 µM
TGI [7]: > 100 µM
TGI [8]: > 100 µM
TGI [9]: > 100 µM
TGI [10]: > 100 µM
TGI [11]: > 100 µM
TGI [12]: 29.1 µM
TGI [13]: > 100 µM
TGI [14]: > 100 µM
TGI [15]: > 100 µM
TGI [17]: > 100 µM
TGI [18]: > 100 µM
TGI [19]: > 100 µM
TGI [20]: > 100 µM
TGI [21]: > 100 µM
TGI [22]: > 100 µM
TGI [23]: 28.4 µM
TGI [24]: > 100 µM
TGI [55]: > 100 µM
TGI [25]: 30.9 µM
TGI [26]: 34.3 µM
TGI [56]: > 100 µM
TGI [27]: > 100 µM
TGI [28]: > 100 µM
TGI [29]: > 100 µM
TGI [57]: > 100 µM
TGI [30]: > 100 µM
TGI [31]: 66.7 µM
TGI [58]: > 100 µM
TGI [32]: > 100 µM
TGI [33]: > 100 µM
TGI [34]: > 100 µM
TGI [35]: > 100 µM
TGI [36]: > 100 µM
TGI [37]: > 100 µM
TGI [38]: > 100 µM
TGI [39]: > 100 µM
TGI [40]: > 100 µM
TGI [41]: > 100 µM
TGI [42]: > 100 µM
TGI [43]: > 100 µM
TGI [44]: > 100 µM
TGI [45]: > 100 µM
TGI [46]: > 100 µM
TGI [47]: 15.4 µM
TGI [49]: > 100 µM
TGI [50]: > 100 µM
TGI [51]: > 100 µM
TGI [52]: > 100 µM
TGI [53]: > 100 µM
TGI [54]: > 100 µM

C=C(C)[C@@H]1CC[C@]2(C(=O)O)CC[C@]3(C)[C@H](CC[C@@H]4[C@@]5(C)CC[C@H](C(=O)/C=C/c6ccc(O)cc6)C(C)(C)[C@@H]5CC[C@]43C)[C@@H]12
TGI [1]: 29.3 µM
TGI [2]: 70.1 µM
TGI [3]: 9.43 µM
TGI [4]: 11.5 µM
TGI [5]: 65.1 µM
TGI [6]: 30 µM
TGI [7]: 26.5 µM
TGI [8]: 46.8 µM
TGI [9]: 10.3 µM
TGI [10]: > 100 µM
TGI [11]: 22.4 µM
TGI [12]: 18.1 µM
TGI [13]: 72.4 µM
TGI [14]: 23 µM
TGI [15]: 23.7 µM
TGI [16]: 51.6 µM
TGI [17]: 10.4 µM
TGI [18]: 19 µM
TGI [19]: 36.3 µM
TGI [20]: 29.2 µM
TGI [21]: 20.8 µM
TGI [22]: 21.7 µM
TGI [23]: 24.4 µM
TGI [24]: 24.4 µM
TGI [55]: 20.3 µM
TGI [25]: 10.4 µM
TGI [26]: 18 µM
TGI [28]: > 100 µM
TGI [29]: 53.9 µM
TGI [57]: 23.6 µM
TGI [30]: 27.7 µM
TGI [31]: 16.5 µM
TGI [58]: 17.3 µM
TGI [32]: 20.9 µM
TGI [33]: 36.2 µM
TGI [34]: 94.6 µM
TGI [35]: 39.5 µM
TGI [36]: 15.2 µM
TGI [38]: 17.3 µM
TGI [39]: 21.9 µM
TGI [59]: 11.4 µM
TGI [40]: 26.5 µM
TGI [41]: > 100 µM
TGI [42]: 18.4 µM
TGI [43]: 20.7 µM
TGI [44]: 45.4 µM
TGI [45]: 27.8 µM
TGI [46]: > 100 µM
TGI [47]: 12.7 µM
TGI [48]: > 100 µM
TGI [50]: 38.5 µM
TGI [51]: 9.53 µM
TGI [52]: 18.4 µM
TGI [53]: 28.3 µM
TGI [54]: > 100 µM

CCOC(=O)c1ccc(C(=O)/C(C#N)=C2\CCCN2)[nH]1
TGI [1]: > 100 µM
TGI [2]: > 100 µM
TGI [3]: > 100 µM
TGI [4]: > 100 µM
TGI [5]: > 100 µM
TGI [6]: > 100 µM
TGI [7]: > 100 µM
TGI [8]: > 100 µM
TGI [9]: > 100 µM
TGI [10]: > 100 µM
TGI [11]: > 100 µM
TGI [12]: > 100 µM
TGI [13]: > 100 µM
TGI [14]: > 100 µM
TGI [15]: > 100 µM
TGI [16]: > 100 µM
TGI [17]: > 100 µM
TGI [18]: > 100 µM
TGI [19]: > 100 µM
TGI [20]: > 100 µM
TGI [21]: > 100 µM
TGI [22]: > 100 µM
TGI [23]: > 100 µM
TGI [24]: > 100 µM
TGI [55]: > 100 µM
TGI [25]: > 100 µM
TGI [26]: > 100 µM
TGI [56]: > 100 µM
TGI [27]: > 100 µM
TGI [28]: > 100 µM
TGI [29]: > 100 µM
TGI [57]: > 100 µM
TGI [30]: > 100 µM
TGI [31]: > 100 µM
TGI [58]: > 100 µM
TGI [33]: > 100 µM
TGI [34]: > 100 µM
TGI [36]: > 100 µM
TGI [38]: > 100 µM
TGI [39]: > 100 µM
TGI [59]: > 100 µM
TGI [40]: > 100 µM
TGI [41]: > 100 µM
TGI [42]: > 100 µM
TGI [43]: > 100 µM
TGI [44]: > 100 µM
TGI [45]: > 100 µM
TGI [46]: > 100 µM
TGI [47]: > 100 µM
TGI [48]: > 100 µM
TGI [49]: > 100 µM
TGI [50]: > 100 µM
TGI [51]: > 100 µM
TGI [52]: > 100 µM
TGI [53]: > 100 µM
TGI [54]: 84.5 µM

Source: PubChem BioAssay (NCI)
